The source of these data is patent US12522596B2, “Compounds as GLP-1R agonists” (Terns Pharmaceuticals, Inc., priority 2021, dated 2026).

As usually defined, the EC50 is the concentration at which the effect is half-maximal. What is called AUC(0-t) is exposure summed from dosing to a finite time, without extrapolation to infinity. A high value points to more exposure. As a reminder, the Cmax is the highest concentration seen after dosing. What is called half-life is how long it takes for the measured level to halve. Read a high half-life as slow decline. By CLint scaled is commonly meant the capacity of the preparation to metabolise the compound, expressed as a volume cleared per time. A high value points to faster metabolism.

The target in one data set is T1, human GLP-1R receptor (Homo sapiens, UniProt P43220).
T1 construct: expressed in transfected cells
T1 sequence (P43220 24-463): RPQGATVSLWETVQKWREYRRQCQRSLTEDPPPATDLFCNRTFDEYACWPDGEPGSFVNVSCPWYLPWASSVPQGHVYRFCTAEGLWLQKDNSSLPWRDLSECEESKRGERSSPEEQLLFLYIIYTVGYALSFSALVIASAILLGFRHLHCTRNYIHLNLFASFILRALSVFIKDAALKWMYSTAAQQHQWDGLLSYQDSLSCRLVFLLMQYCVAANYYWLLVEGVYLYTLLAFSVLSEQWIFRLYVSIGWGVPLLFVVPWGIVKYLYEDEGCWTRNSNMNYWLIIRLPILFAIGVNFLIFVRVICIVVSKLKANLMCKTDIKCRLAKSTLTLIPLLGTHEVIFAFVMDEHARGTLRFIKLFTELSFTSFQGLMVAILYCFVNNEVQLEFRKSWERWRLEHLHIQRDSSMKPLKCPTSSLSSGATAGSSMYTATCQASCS
The data set is described as follows: GLP-1R low expression cell assay (cAMP TR-FRET, CHO-K1_hGLP-1Rlow_clone10). It counts as cell-based. The settings on record: CHO-K1_hGLP-1Rlow_clone10 cells. As to the method: Stable cell lines expressing high and low GLP-1R surface expression were generated in CHO-K1 cells transfected (Fugene 6) with a puromycin selectable DNA plasmid encoding human GLP-1R receptor (accession number: NM_002062.5) under control of an EF1A promoter. Transfected cells were seeded into 24-well plates (9,000 cells/well) containing complete medium and incubated in a humidified incubator at 37° C. with 5% carbon dioxide. After overnight incubation, medium was replaced with complete medium supplemented with puromycin (6 μg/mL) and refreshed every 2-3 days to select for stably transfected cells. Individual pools of selected cells were expanded prior to analysis for responsiveness to GLP-1 control peptide using a TR-FRET assay to detect cAMP (LANCE Ultra CAMP Assay, Perkin Elmer). Briefly, cells were collected in Versene solution, plated in 384-well plates (1,000 cells/well) and combined with serially diluted GLP-1R control peptide (10 nL) using an acoustic dispenser (ECHO). Plates were incubated for 30 minutes at 25° C. prior to the addition of EU-CAMP tracer (5 μL) and Ulight-anti-cAMP (5 μL) reagents to each well, followed by 15 minutes incubation at 25° C. TR-FRET signal was detected using an En Vision Multimode Plate Reader (excitation=320 nm; emission=615 and 655 nm). Dose-response curves were used to generate EC50 values as a measure of responsiveness to the GLP-1R control peptide. Selected cell lines were monitored for responsiveness over multiple passages to ensure stability. […] Briefly, GLP-1R expression was analyzed by flow cytometry using a fluorescein-labeled Exendin-4 peptide fluorescent probe (FLEX). Cells were harvested in Versene solution and washed 3-times with PBS+0.5% BSA before incubation with FLEX reagent (10 μM) for 2 hours at room temperature. After incubation, cells were washed 3-times in PBS+0.5% BSA before final resuspension in PBS prior to analysis by flow cytometry to measure FLEX mean fluorescence intensity (MFI) as a measure of GLP-1R expression on the cell surface.
For compound testing in the CHO-K1_hGLP-1Rlow_clone10 cell line, cells were seeded in 384-well plates (1,000 cells/well). Test compounds were serially diluted in DMSO (10-point, 3-fold dilution), added to wells using an ECHO dispenser (10 nL/well) and plates were centrifuged for 1 min and agitated for 2 min at room temperature prior to 30-minute incubation at 25° C. After incubation, Eu-CAMP (5 μL) and Ulight-anti-cAMP (5 μL) reagents were added to each well, followed by centrifugation for 1 minute, agitation for 2 minutes at room temperature, and final incubation of the plates at 25° C. for 15 minutes. Plates were read using an EnVision microplate reader (excitation=320 nm; emission=615 and 655 nm). Dose-response curves were generated from duplicate wells based on percent activation calculated relative to a control GLP-1 peptide agonist that was run in parallel. EC50 values were determined by fitting percent activation as a function of compound concentration using the Hill equation (XLfit).
Stable cell lines expressing high and low GLP-1R surface expression were generated in CHO-K1 cells transfected (Fugene 6) with a puromycin selectable DNA plasmid encoding human GLP-1R receptor (accession number: NM_002062.5) under control of an EF1A promoter. Transfected cells were seeded into 24-well plates (9,000 cells/well) containing complete medium and incubated in a humidified incubator at 37° C. with 5% carbon dioxide. After overnight incubation, medium was replaced with complete medium supplemented with puromycin (6 μg/mL) and refreshed every 2-3 days to select for stably transfected cells. Individual pools of selected cells were expanded prior to analysis for responsiveness to GLP-1 control peptide using a TR-FRET assay to detect cAMP (LANCE Ultra CAMP Assay, Perkin Elmer).
Background: Time-resolved FRET reads energy transfer from a long-lived donor to a nearby acceptor.

Data set [1] can be described thus: Rat pharmacokinetics, oral dosing. It counts as in vivo, Sprague-Dawley rats. The settings on record: for AUC(0-t) / Cmax / half-life: male, Sprague-Dawley, rat plasma. As to the method:
Oral dosing: Compounds were formulated at 0.3 mg/mL or 0.6 mg/mL in a solution comprising 5% polyethylene glycol 400 and 95% (12% (w/v) sulfobutyl-β-cyclodextrin in water) (v/v). Formulated compounds were administered to male, 7-11 week old Sprague-Dawley rats by oral gavage at a dose of 3 mg/kg.
Sample collection: Blood collections of about 0.2 mL per time point were performed from jugular vein or other suitable site of each animal, into pre-chilled commercial EDTA-K2 tubes and placed on wet ice until centrifugation. Blood samples were processed for plasma by centrifugation at approximately 4° C., 3,200 g for 10 min. Plasma was collected and transferred into pre-labeled 96 well plate or polypropylene tubes, quick frozen over dry ice and kept at −60° C. or lower until LC-MS/MS analysis.
Data analysis: Plasma concentration versus time data was plotted in graph and analyzed by non-compartmental approaches using the Phoenix WinNonlin 6.3 software program. Related PK parameters were calculated according to dosing route, e.g., CL, Vdss and C0 for intravenous administration, Cmax, Tmax or % F for extravascular administration, and T1/2, AUC(0-t), AUC(0-inf), MRT(0-t), MRT(0-inf) for all routes.

Data set [2] can be described thus: Metabolic stability in rat hepatocytes. The class given is in vitro ADME. The settings on record: cryopreserved hepatocytes, 1 μM. The protocol: (§1) Test compounds were incubated in rat and human hepatocytes and stability was assessed from the substrate […] approach. Test compounds were dissolved in dimethyl sulfoxide (DMSO) to create a 10 mM Stock, and then further diluted to create a 1000× Working Stock of 1 mM with DMSO in 96-well plates for test compounds and the positive control (midazolam). Vials containing cryopreserved hepatocytes were removed from the liquid nitrogen tank and immediately immersed in a 37° C. water bath. The vials were shaken gently until the contents had thawed and were then immediately emptied into 48 mL of pre-warmed HT Medium in a 50 mL conical tube. Cells remaining in the vial were resuspended with 1.0 mL of pre-warmed HT Medium and added to the conical tube. The tube was capped and then gently inverted several times to resuspend the hepatocytes. The cell suspension was centrifuged at 50×g at room temperature for 5 minutes and the supernatant discarded. The cell pellet was loosened by gently swirling the centrifuge tube and was re-suspended in 4 mL of warm Dulbecco's Modified Eagle medium (DMEM). Cell density was determined by a cell counter by Nexcelom, and DMEM medium was added to obtain a target density of 1×10^6 cells/mL. The assay was carried out in 96-well microtiter plates. Test Compounds were incubated at 1 μM with 1×10^6 cells/mL hepatocytes in DMEM for 0, 30, 60, 120 and 240 minutes. The incubation was carried out with gentle shaking at 37° C. under a humid atmosphere of 95% air/5% CO2. The volume of the incubation mixture was 37 μL with a final 0.1% DMSO. At each of the time points, the incubation was stopped by adding 150 μL quenching solution (100% acetonitrile, 0.1% formic acid containing bucetin as an internal standard for positive ESI mode). Subsequently, the mixtures were vortexed for 20 min and centrifuged at 4,000 RPM at 10° C. The supernatant (80 μL) was transferred to a clean 96-well plate and analyzed by LC-MS/MS. Midazolam at 1 μM with a final 0.1% DMSO was included as a positive control to verify assay performance. The percent parent remaining, intrinsic and predicted hepatic clearance and t1/2 were calculated. All samples were analyzed by LC-MS/MS using an AB Sciex API 4000 instrument, coupled to a Shimadzu LC-20AD LC Pump system. Separation was achieved using a Waters Atlantis T3 dC18 reverse phase HPLC column (20 mm×2.1 mm) at a flow rate of 0.5 mL/min. The mobile phase consisted of 0.1% formic acid in water (solvent A) and 0.1% formic acid in 100% acetonitrile (solvent B). Elution conditions are detailed below.
(§2) The ion optics of each test compound were optimized for their declustering potential (DP), […] (CE), collision-cell exit potential (CXP) and used in a selected ion monitoring experiment in the positive ion mode. The peak area ratio of each test compound to internal standard was then evaluated for stability. The extent of metabolism was calculated based on the disappearance of the test compound, compared to its initial concentration. The initial rates of clearance of the test compound were calculated using the linear regression plot of semi-log % remaining of the compound versus time. The elimination rate constant (k) of the linear regression plot was then used to determine t1/2 and the intrinsic clearance (CLint) using the following formula, where Chepatocyte (million cells/mL) is the cell density of the incubation:
(§3) The predicted hepatic clearance (CLhep) was calculated using the well stirred method with the following formula with CLint(in vivo) normalized based on liver weight: […]
(§4) The relevant physiological parameters of liver weight, blood flow, and hepatocellularity for various species are listed below: […]

For another data set, the system named is rat hepatocytes. The data set is described as follows: Metabolic stability in rat hepatocytes. It counts as in vitro ADME. The protocol: as §1, §2, §3, §4
Data set [3] can be described thus: Metabolic stability in human hepatocytes. The settings on record: cryopreserved hepatocytes; human hepatocytes, 1 μM. It counts as in vitro ADME. As to the method: as §1, §2, §3, §4
Where [4] appears, read: rat, plasma, po, 3 mg/kg, 3 mg/kg PO (0.3 mg/mL).

Consider `N#Cc1ccc(COc2cccc(C3CCN(Cc4nc5ccc(C(=O)O)cc5n4Cc4nccs4)CC3)n2)c(F)c1` [Compound 1], for which, on human GLP-1R receptor, the EC50 stood at 50.1 nM.

Compound `N#Cc1cc(F)c2c(c1)CCN(c1cccc(C3CCN(Cc4nc5ccc(C(=O)O)cc5n4Cc4cncs4)CC3)n1)C2` [Compound 3] showed an EC50 on human GLP-1R receptor of 44.2 nM. In data set [1] (setting [4]), this compound gave an AUC(0-t) of 116 ± 23.2 ng·h/mL, a Cmax of 79.8 ± 24.4 ng/mL and a half-life of 1.1 ± 0.29 h. Turning to `N#Cc1cc(F)c2nc(COc3cccc(C4CCN(Cc5nc6ccc(C(=O)O)cc6n5Cc5cncs5)CC4)n3)sc2c1` [Compound 5], the EC50 at human GLP-1R receptor is 5.4 nM.

At human GLP-1R receptor, `N#Cc1cc(F)c2nc(COc3cccc(C4CCN(Cc5nc6ccc(C(=O)O)cc6n5Cc5scnc5Br)CC4)n3)sc2c1` [Compound 6] had an EC50 of 135 nM.

In the case of `C=Cc1ncsc1Cn1c(CN2CCC(c3cccc(OCc4nc5c(F)cc(C#N)cc5s4)n3)CC2)nc2ccc(C(=O)O)cc21` [Compound 7], the EC50 at human GLP-1R receptor came out at 90.6 nM.

With `CCc1ncsc1Cn1c(CN2CCC(c3cccc(OCc4nc5c(F)cc(C#N)cc5s4)n3)CC2)nc2ccc(C(=O)O)cc21` [Compound 8], a half-maximal effect at human GLP-1R receptor (EC50) was put at 360 nM. For the compound `N#Cc1cc(F)c2nc(COc3cccc(C4CCN(Cc5nc6ccc(C(=O)O)cc6n5Cc5ccns5)CC4)n3)sc2c1` [Compound 9], the EC50 on human GLP-1R receptor was 16.6 nM. `COc1ccsc1Cn1c(CN2CCC(c3cccc(OCc4nc5c(F)cc(C#N)cc5s4)n3)CC2)nc2ccc(C(=O)O)cc21` [Compound 10] had an EC50 on human GLP-1R receptor of 393 nM. On the same count and under the same terms, in the case of `Cc1scnc1Cn1c(CN2CCC(c3cccc(OCc4nc5c(F)cc(C#N)cc5s4)n3)CC2)nc2ccc(C(=O)O)cc21` [Compound 11] it was 292 nM.

Compound `Cc1ncsc1Cn1c(CN2CCC3(c4cccc(OCc5ccc(C#N)cc5F)n4)CC3C2)nc2ccc(C(=O)O)cc21` (centres unmarked) [Compound 12] registered an EC50 on human GLP-1R receptor of 232 nM. In data set [2], this compound came in with an intrinsic metabolic clearance (CLint scaled) at 1 μM of 91.7 ± 1.76 mL/min/kg and a half-life at 1 μM of 0.604 ± 0.0117 h. Also, in the data set on rat hepatocytes, the “CLint relative to reference standard” value is on record as “significantly increased” and the “Half-life relative to reference” value is given as “significantly lower”. In data set [3], this compound gave a CLint scaled at 1 μM of 26.8 ± 0.8 mL/min/kg and a half-life at 1 μM of 1.49 ± 0.0445 h.

In turn, `CCc1scnc1Cn1c(CN2CCC(c3cccc(OCc4nc5c(F)cc(C#N)cc5s4)n3)CC2)nc2ccc(C(=O)O)cc21` [Compound 13] yielded an EC50 on human GLP-1R receptor of 724 nM. Besides, the “Half-life relative to reference” value with rat hepatocytes is on record as “significantly lower”. Take `N#Cc1ccc(COc2cccc(C3CCN(Cc4nc5ccc(C(=O)O)cc5n4Cc4scnc4Cl)CC3)n2)c(F)c1` [Compound 15]: the EC50 at human GLP-1R receptor came to 25.8 nM. Still for that read-out and setting: the value for `N#Cc1ccc(COc2ccnc([C@]34CCN(Cc5nc6ccc(C(=O)O)cc6n5Cc5cncs5)C[C@H]3C4)n2)c(F)c1` [Compound 18] was 9.9 nM; that for `N#Cc1ccc(COc2ccnc([C@@]34CCN(Cc5nc6ccc(C(=O)O)cc6n5Cc5cncs5)C[C@@H]3C4)n2)c(F)c1` [Compound 19] was 161 nM; that for `O=C(O)c1ccc2nc(CN3CC[C@]4(c5nccc(OCc6ccc(Cl)cc6F)n5)C[C@@H]4C3)n(Cc3cncs3)c2c1` [Compound 21] was 6.6 nM. Still for that read-out and setting: in the case of `O=C(O)c1ccc2nc(CN3CC[C@@]4(c5nccc(OCc6ccc(Cl)cc6F)n5)C[C@H]4C3)n(Cc3cncs3)c2c1` [Compound 22] it was 87.5 nM. On the same count and under the same terms, in the case of `O=C(O)c1ccc2nc(CN3CC[C@]4(c5cccc(OCc6ccc(Cl)cc6F)n5)C[C@@H]4C3)n(Cc3cncs3)c2c1` [Compound 24] it was 15.1 nM. `O=C(O)c1ccc2nc(CN3CC[C@@]4(c5cccc(OCc6ccc(Cl)cc6F)n5)C[C@H]4C3)n(Cc3cncs3)c2c1` [Compound 25] gave an EC50 at human GLP-1R receptor of 24.4 nM. In addition, the Cmax in data set [1] (rat, plasma, po, 3 mg/kg, 3 mg/kg PO (0.6 mg/mL)) turned out to be 412 ± 98.3 ng/mL. In data set [1] (3 mg/kg PO (0.6 mg/mL)), this compound had an exposure AUC(0-t) of 558 ± 100 ng·h/mL and a half-life of 1.52 ± 0.21 h. Also, the “PK properties relative to Reference Compound A” value in data set [1] (rat, dosed orally) is “similarly improved PK properties”.
